Columns and labels:
Format in all cases: biochemical
S6K = S6K (Homo sapiens, UniProt P23443); assay: S6K kinase inhibition, Z'-LYTE FRET assay; conditions: 100 μM ATP
How it was run: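 Z'-LYTE FRET format: kinase phosphorylates fluorophore-labelled peptide with ATP, then protease cleaves only non-phosphorylated peptide. Phosphorylation calculated from donor (460 nm)/acceptor (535 nm) emission ratio after 400 nm excitation; IC50 values derived.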

[1] = target: T1, human PKCθ full length enzyme (Homo sapiens, UniProt Q04759); assay: PKCθ kinase inhibition, IMAP fluorescence polarization assay; conditions: 6 μM ATP
T1 construct: human PKCθ full length enzyme; purchased Panvera, Madison, Wis., now Invitrogen, Carlsbad, Calif; P2996
T1 sequence (Q04759 whole entry): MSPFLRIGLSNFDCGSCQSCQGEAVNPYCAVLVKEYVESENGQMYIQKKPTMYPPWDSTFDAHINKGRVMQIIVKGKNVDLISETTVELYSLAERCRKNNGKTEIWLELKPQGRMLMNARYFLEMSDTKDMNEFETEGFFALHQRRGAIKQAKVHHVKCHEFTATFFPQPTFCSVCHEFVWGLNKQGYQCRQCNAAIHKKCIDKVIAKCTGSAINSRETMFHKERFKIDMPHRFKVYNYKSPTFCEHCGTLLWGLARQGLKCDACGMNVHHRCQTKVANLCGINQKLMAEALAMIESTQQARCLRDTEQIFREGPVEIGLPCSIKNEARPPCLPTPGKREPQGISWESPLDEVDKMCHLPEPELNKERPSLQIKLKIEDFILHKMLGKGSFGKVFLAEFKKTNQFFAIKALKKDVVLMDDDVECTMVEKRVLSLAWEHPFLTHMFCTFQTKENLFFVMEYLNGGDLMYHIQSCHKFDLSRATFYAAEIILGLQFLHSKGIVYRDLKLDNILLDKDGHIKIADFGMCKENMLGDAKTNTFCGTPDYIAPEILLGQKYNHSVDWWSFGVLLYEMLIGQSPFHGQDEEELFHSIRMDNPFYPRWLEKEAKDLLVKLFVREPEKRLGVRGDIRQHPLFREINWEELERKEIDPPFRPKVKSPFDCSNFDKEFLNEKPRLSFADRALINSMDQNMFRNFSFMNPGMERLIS
Source text: The ability of illustrative Benzo[c][2,7]naphthyridine Derivatives to inhibit PKCθ can be determined using an IMAP Assay (Molecular Devices Corporation, Sunnyvale, Calif.). The materials used include the following: human PKCθ full length enzyme (Panvera, Madison, Wis., now Invitrogen, Carlsbad, Calif., Cat. No. P2996); substrate peptide: 5FAM-[…]-OH (Molecular Devices, Cat. No. RP7032); ATP (Sigma-Aldrich, St. Louis, Mo., Sigma Cat. No. A2383); DTT (e.g., Pierce, now Fisher Scientific, Waltham, Mass., Pierce Cat. No. 20291); 5× kinase reaction buffer (Molecular Devices, Cat. No. R7209); 5× binding buffer A (Molecular Devices, Cat. No. R7282), 5× binding buffer B (Molecular Devices, Cat. No. R7209); IMAP Beads (Molecular Devices, Cat. No. R7284); and 384-well plates (Corning Costar, Acton, Mass., Cat. No. 3710). The reaction buffer is prepared by diluting the 5× stock reaction buffer and adding DTT to obtain a concentration of 3.0 mM. The binding buffer is prepared by diluting the 5× binding buffer A. A master mix solution is prepared using a 90% dilution of the reaction buffer containing 2×ATP (12 μM) and 2× peptide (200 nM). […] The final concentration of compound is 2× and 10% DMSO. DMSO is added to the rest of the master mix to increase the concentration to 10%. 10 μl of the master mix containing 10% DMSO is added to the rest of the wells on the plate except the 2nd column. 20 μl is transferred from the first column to the 2nd column. The compounds are serially diluted in 2:1 ratio starting from the 2nd column. A 2× (2 nM) PKCθ solution is made in the reaction buffer. 10 μl of the PKCθ solution is added to every well to achieve these final concentrations: PKCθ—1 nM; ATP—6 μM; peptide—100 nM; DMSO—5%. Samples are incubated for 25 minutes at room temperature. The binding reagent is prepared by diluting the beads in 1× binding buffer to 800:1. 50 μl of the binding reagent is added to every well and incubated for 20 minutes. Fluorescence polarization is measured using EnVision™ 2100 multilabel reader (PerkinElmer Life Sciences, Wellesley, Mass.). Wells with no ATPs and wells with no enzymes are used as controls.

PKA = PKA (Homo sapiens, UniProt P17612); assay: PKA kinase inhibition, Z'-LYTE FRET assay
Source text: Z′-Lyte™ assay is an in vitro FRET-based assay that utilizes differential sensitivity of phosphorylated and non-phosphorylated peptides to proteolytic cleavage. The peptide substrate (also available from Invitrogen for each of PKA, Akt1 and S6K) is labeled with two different fluorophores, a fluorescence donor at one end of the peptide and a fluorescence acceptor at the other end of the peptide. In the primary kinase reaction, the kinase phosphorylates the peptide substrate in the presence of ATP. In the secondary reaction, a site-specific protease recognizes and cleaves non-phosphorylated peptides, but not phosphorylated peptides. Cleavage disrupts FRET between the donor and acceptor fluorophores on the peptide, whereas uncleaved phosphorylated peptides maintain FRET. Based on a formula that uses the ratio of donor emission (at 460 nm) to acceptor emission (at 535 nM) after excitation of the donor fluorophore at 400 nm, the extent of phosphorylation of the peptide substrates is calculated.

PDK-1 = target: T2, PDK-1 (Homo sapiens, UniProt O15530); assay: PDK-1 kinase inhibition ELISA assay (phosphorylation of His6-tagged SGK1 S422D by PDK-1); conditions: PDK-1 ELISA, Table 11; read-out: Average IC50
T2 sequence (O15530 1-556): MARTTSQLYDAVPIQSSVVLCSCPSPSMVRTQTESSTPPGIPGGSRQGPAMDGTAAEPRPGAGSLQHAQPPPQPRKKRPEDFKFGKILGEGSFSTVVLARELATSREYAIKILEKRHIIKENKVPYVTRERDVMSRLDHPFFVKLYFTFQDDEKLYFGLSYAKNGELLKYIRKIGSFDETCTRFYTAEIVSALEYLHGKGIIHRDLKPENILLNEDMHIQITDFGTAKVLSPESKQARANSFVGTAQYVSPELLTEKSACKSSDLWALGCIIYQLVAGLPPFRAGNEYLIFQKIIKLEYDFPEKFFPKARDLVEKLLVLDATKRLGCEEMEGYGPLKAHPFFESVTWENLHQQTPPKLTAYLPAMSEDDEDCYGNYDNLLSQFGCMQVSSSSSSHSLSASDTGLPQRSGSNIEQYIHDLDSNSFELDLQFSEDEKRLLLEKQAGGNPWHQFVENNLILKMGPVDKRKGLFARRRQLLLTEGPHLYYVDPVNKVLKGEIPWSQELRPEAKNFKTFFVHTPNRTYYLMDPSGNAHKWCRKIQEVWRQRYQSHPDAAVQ
Protocol: In an in vitro assay, His6-tagged SGK1 with S422D mutation (formerly Upstate Biotech, now Millipore) on Thr256 is allowed to be phosphorylated by PDK-1 in the presence of a Benzo[c][2,7]naphthyridine Derivative. After 20 minutes, the reaction is quenched via the addition of urea. The His6-tagged SGK1 is then bound to 96 well Ni-NTA HisSorb plates (Quiagen, Inc., Valencia, Calif.) and phosphorylated SGK1 is quantitatively detected using rabbit derived anti-phospho SGK antibody (Cell Signaling Technology, Danvers, Mass.) as the primary antibody and horseradish peroxidase (HRP)—coupled anti-rabbit antibody (formerly Zymed, now Invitrogen, Carlsbad, Calif.) as the secondary antibody. HRP is then detected using a chemiluminescent substrate (Pierce Chemical Co., Woburn, Mass.).

Akt1 = Akt1 (Homo sapiens, UniProt P31749); assay: Akt1 kinase inhibition, Z'-LYTE FRET assay; conditions: 100 μM ATP
Chain of Akt1 (P31749 whole entry, species assumed): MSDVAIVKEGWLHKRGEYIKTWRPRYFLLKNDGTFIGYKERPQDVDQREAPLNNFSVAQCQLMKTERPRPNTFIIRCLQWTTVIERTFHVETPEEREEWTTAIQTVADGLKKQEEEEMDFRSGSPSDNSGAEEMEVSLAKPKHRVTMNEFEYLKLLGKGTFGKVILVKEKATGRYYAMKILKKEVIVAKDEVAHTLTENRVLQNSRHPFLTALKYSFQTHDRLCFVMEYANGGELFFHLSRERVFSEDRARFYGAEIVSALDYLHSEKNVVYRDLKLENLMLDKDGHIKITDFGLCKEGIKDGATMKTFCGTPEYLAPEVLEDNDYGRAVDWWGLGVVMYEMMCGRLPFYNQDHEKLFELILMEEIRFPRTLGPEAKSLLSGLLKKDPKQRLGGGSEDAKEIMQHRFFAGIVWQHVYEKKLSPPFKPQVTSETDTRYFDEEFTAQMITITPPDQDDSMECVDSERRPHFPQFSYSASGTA
Source text: The ability of illustrative Benzo[c][2,7]naphthyridine Derivatives to inhibit PKA, Akt1, S6K in vitro can be determined using a Fluorescence Resonance Energy Transfer (FRET) assay, such as a Z′-LYTE™ Kinase Assay Platform, commercially available from Invitrogen (c.f. Rodems et al., ASSAY Drug Devel. Technol. 1:9-19 (2002) and Zhang et al., J. Biomol. Screen. 4:67-73 (1999)). Z′-Lyte™ assay is an in vitro FRET-based assay that utilizes differential sensitivity of phosphorylated and non-phosphorylated peptides to proteolytic cleavage. The peptide substrate (also available from Invitrogen for each of PKA, Akt1 and S6K) is labeled with two different fluorophores, a fluorescence donor at one end of the peptide and a fluorescence acceptor at the other end of the peptide. In the primary kinase reaction, the kinase phosphorylates the peptide substrate in the presence of ATP. In the secondary reaction, a site-specific protease recognizes and cleaves non-phosphorylated peptides, but not phosphorylated peptides. Cleavage disrupts FRET between the donor and acceptor fluorophores on the peptide, whereas uncleaved phosphorylated peptides maintain FRET. Based on a formula that uses the ratio of donor emission (at 460 nm) to acceptor emission (at […]) after excitation of the donor fluorophore at 400 nm, the extent of phosphorylation of the peptide substrates is calculated. IC50 values of illustrative Benzo[c][2,7]naphthyridine Derivatives, shown in Table 12, are calculated using LSW Data Analysis package add-in for Excel (Microsoft).

Chain of S6K (P23443 whole entry): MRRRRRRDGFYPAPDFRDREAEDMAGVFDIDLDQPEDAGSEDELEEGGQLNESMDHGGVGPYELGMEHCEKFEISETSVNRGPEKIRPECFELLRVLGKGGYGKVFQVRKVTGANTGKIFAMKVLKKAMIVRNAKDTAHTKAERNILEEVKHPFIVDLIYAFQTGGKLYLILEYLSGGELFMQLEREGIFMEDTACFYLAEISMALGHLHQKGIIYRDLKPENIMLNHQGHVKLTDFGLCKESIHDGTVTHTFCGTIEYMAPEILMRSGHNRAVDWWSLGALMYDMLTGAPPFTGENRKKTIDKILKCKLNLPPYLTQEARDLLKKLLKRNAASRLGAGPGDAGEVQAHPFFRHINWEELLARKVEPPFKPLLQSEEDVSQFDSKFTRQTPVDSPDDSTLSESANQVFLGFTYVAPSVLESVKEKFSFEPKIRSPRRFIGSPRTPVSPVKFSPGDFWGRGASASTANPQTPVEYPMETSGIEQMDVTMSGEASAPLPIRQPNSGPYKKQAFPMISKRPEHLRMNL

Row | SMILES | IC50 (S6K) [nM] | IC50 [1] [nM] | IC50 (PKA; 20 μM ATP) [nM] | IC50 (PKA; 100 μM ATP) [nM] | IC50 (PDK-1) [nM] | IC50 (Akt1) [nM]
1 | COCCOc1cc2ncc3c(N)nc(-c4cncc(OC[C@@H](N)Cc5ccccc5)c4)cc3c2cc1OC [Ia-11, 2-(5-{[(2S)-2-amino-3-phenylpropyl]oxy}pyridin-3-yl)-9-methoxy-8-(2-methoxyethoxy)benzo[c]-2,7-naphthyridin-4-amine] | 34 | 17 | 38 | 390 | 12 | 1
2 | COc1cc2c(cc1OCCN1CCOCC1)ncc1c(N)nc(-n3ccnc3)cc12 [Ia-13, 2-(1H-imidazol-1-yl)-9-methoxy-8-(2-morpholinoethoxy)benzo[c][2,7]naphthyridin-4-amine] | 656 | 121 | > 10000 | > 2000 | 79 | 70
3 | COc1cc2ncc3c(N)nc(-c4cncc(O[C@@H]5CCNC5)c4)cc3c2cc1OC [Ib-58, 8,9-dimethoxy-2-{5-[(3R)-pyrrolidin-3-yloxy]pyridin-3-yl}benzo[c]-2,7-naphthyridin-4-amine] | 355 | 249 | 140 | 1530 | 66 | 60
4 | COc1cc2ncc3c(N)nc(-c4cncc(O[C@H]5CCNC5)c4)cc3c2cc1OC [Ib-59, 8,9-dimethoxy-2-{5-[(3S)-pyrrolidin-3-yloxy]pyridin-3-yl}benzo[c]-2,7-naphthyridin-4-amine] | 1240 | 592 | 2000 | > 2000 | 64 | 290
5 | CCOc1cc2ncc3c(N)nc(-n4ccnc4)cc3c2cc1N [Ia-28, 8-Ethoxy-2-(1H-imidazol-1-yl)benzo[c]-2,7-naphthyridine-4,9-diamine] | 1090 | 135 |  | > 2000 | 46 | 360
6 | COc1cc2ncc3c(N)nc(-c4cncc(OC[C@H](N)Cc5ccccc5)c4)cc3c2cc1OC [Ib-56, 2-(5-{[(2R)-2-amino-3-phenylpropyl]oxy}pyridin-3-yl)-8,9-dimethoxybenzo[c]-2,7-naphthyridin-4-amine] | 88 | 4 | < 160 | 259 |  | 3
7 | COc1cc2ncc3c(N)nc(-c4cncc(OC[C@@H](N)Cc5ccccc5)c4)cc3c2cc1OC [Ib-62, 2-(5-{[(2S)-2-amino-3-phenylpropyl]oxy}pyridin-3-yl)-8,9-dimethoxybenzo[c]-2,7-naphthyridin-4-amine] | 98 to 140 | 29 | 23 | 146 to 497 | 10 | < 160
8 | COc1cc2ncc3c(N)nc(-c4cncc(OC[C@H](N)Cc5c[nH]c6ccccc56)c4)cc3c2cc1OC [Ib-55, 2-(5-{[(2R)-2-amino-3-(1H-indol-3-yl)propyl]oxy}pyridin-3-yl)-8,9-dimethoxybenzo[c]-2,7-naphthyridin-4-amine] | 254 | 3 | < 80 | 1320 | 15 | 18
9 | COc1cc2ncc3c(N)nc(-c4cncc(O)c4)cc3c2cc1OC [Ib-57, 5-(4-Amino-8,9-dimethoxybenzo[c]-2,7-naphthyridin-2-yl)pyridin-3-ol] | > 2000 | 332 | > 20000 | > 2000 | 57 | 300
